Data from patent US20040024038A1, “GABA enhancers in the treatment of diseases relating to reduced neurosteroid activity” (H. Lundbeck A/S, priority 2000, published 2004).
“Also recorded” adds a separate entry of the source.

Key:
[1] = test system: Female mice; test: Elevated plus maze in progesterone withdrawal (PWD) model of PMS; type: in vivo; settings: for Time Open Arm, Mean / Grid Cross, Mean (number of total grid crosses, general locomotor activity) / Time Outside Rail, Mean: THIP 1.25 mg/kg; for Time Open Arm, Mean: tested 40 minutes after injection, 10 min plus maze; for Grid Cross, Mean (number of total grid crosses, general locomotor activity) / Time Outside Rail, Mean: 40 minutes after injection
Protocol: The described model is a hormone withdrawal model of PMS in the rat, based on the prevailing hypothesis that dysphoric mood is predominantly associated with declining hormone levels (i.e., “hormone withdrawal”) in women with PMS.
Female mice (Charles River) were housed in pairs under a 14 hour light and 10 hour dark cycle with food and water ad libitum. All animals were tested during the light portion of the circadian cycle. In female mice, estrous cycle stage was determined by microscopic examination of the vaginal lavage, as described previously (Smith, 1987) and by measures of vaginal impedance (Bartlewski, 1999; Bartos, 1977; Koto, 1987; Koto, 1987) throughout one entire cycle prior to testing. Only females in diestrous were used as subjects.
Progesterone implants were made from silicone tubing (Nalgene Co, 1/16″i.d×1/8″ o.d.) which was cut to size depending on the body weight of the animal (10 mm tubing per 100 g), filled with crystalline progesterone and sealed with silastic medical adhesive (Dow Corning). The sealed capsules were incubated overnight in a solution containing 1% gelatine and 0.9% saline in a water bath (37° C.) with gentle shaking overnight. Sham implants are empty sealed tubes of the same dimensions. Rats were then anesthestized with 2% halothane (2-bromo-2-chloro-1,1,1-trifluroethane) in oxygen and the capsules implanted subcutaneously in the abdomen. Removal of the implants also occurred under the same regime of halothane anesthesia, and implanted s.c. under anesthesia in the abdominal area of the rat (Smith, 1998; Moran, 1998) for 21 days.
Control animals were implanted exactly the same way with empty (sham) silicone capsules. Animals were either sacrificed or tested 24 hrs after removal of the implant (P withdrawal).
On the day of testing, animals were injected with either THIP (1.25 mg/kg) or saline and tested 40 minutes after the injection.
Mice were tested on the plus maze, elevated 50 cm above the floor, in a room with low, indirect incandescent lighting and low noise levels. The plus maze consists of 2 enclosed arms (50×10×40 cm) and 2 open arms (50×10 cm) and is explained in detail in (Pellow, 1985).
The floor of all four arms was marked with grid lines every 25 cm. On the day of testing, each mouse was placed in the testing room for 30-40 minutes prior to testing in order to acclimatise to the situations. At the time of testing, each animal was tested for 10 minutes after exiting a start box in the centre platform of the plus maze. To be considered as an entry into any arm, the mouse must pass the line of the open platform with all four paws. The duration (in seconds) of time spent in the open arm was recorded from the time of entry into the open arm. Decreased time spent in the open arm generally indicates higher levels of anxiety (Pellow, 1985). Other behavioural measures recorded included the duration of time spent (in seconds) beyond the rail. The amount of time that subjects spend in the open portion of the plus maze in the absence of rails is considered to be more sensitive to anxiolytic agents (i.e. agents that would increase the amount of time spent in the open arm) than the amount of time spent in the open arms with rails (Fernandes, 1996). In order to measure general locomotor activity, the number of total grid crosses was counted. Lastly, the duration of time (in sec) spent grooming was also scored. The experimenter was blind to all conditions, and animals were tested in a randomised block design.
Data from the plus maze were analysed in a 2-way ANOVA (implant condition×injection condition) followed by a post-hoc ANOVA and post hoc t-test.

[2] = test system: hippocampal cells; settings: hippocampal cells after progesterone withdrawal; previous work; cited from earlier work
[3] = female control (sham implant) mice

Row | Compound | Reversal of the PWD effect in the plus maze ([1]; PWD mice, dose of 1.25 mg/kg, 1.25 mg/kg) | Time Open Arm, Mean ([1]; female PWD mice (24 hrs after removal of progesterone implant)) [s] | Grid Cross, Mean (number of total grid crosses, general locomotor activity) ([1]; female PWD mice) | Time Outside Rail, Mean ([1]; female PWD mice) [s] | Grid Cross, Mean (number of total grid crosses, general locomotor activity) [1, 3] | Time Outside Rail, Mean [1, 3] [s] | Time Open Arm, Mean [1, 3] [s] | Sensitivity of hippocampal cells to the GABA-potentiating effect [2]
1 | Oc1noc2c1CCNC2 [THIP, THIP (Gaboxadol)] | completely reversed the PWD effect; also recorded: counteract the PWD completely | 157.023 | 83.333 | 29.503 | 52.000 | 10.060 | 38.377 | 
2 | O=C1Nc2ccc(Cl)cc2C(c2ccccc2Cl)=NC1O (centres unmarked) [lorazepam] |  |  |  |  |  |  |  | striking insensitivity
